Laboratory results taken from patent US20240307370A1, “SIGMA RECEPTOR LIGANDS FOR TREATING SARS-COV-2 INFECTION” (University of Florida Research Foundation, Incorporated, priority 2021, published 2024).
In brackets after ≈: the same amount, converted by molar mass. Read-outs that look alike come from different tables or passages of the source.

Experiments:
SARS-CoV-2 [1] = settings: cited from earlier work
SARS-CoV-2 [2] = settings: cited from earlier work; remark: listed apart in the source
SARS-CoV-2 [3] = format: cell-based
SARS-CoV-2 [4] = format: cell-based; settings: Vero E6, MOI 0.2, 72 h
SARS-CoV-2 [5] = experiment: microbe, parasite or virus in culture; settings: Severe acute respiratory syndrome coronavirus 2, Vero C1008, 72 h
SARS-CoV-2 [6] = experiment: K18-hACE2 mouse SARS-CoV-2 infection model; format: in vivo, mice
SARS-CoV-2 [7] = format: cell-based; settings: H23-hACE2, MOI 0.01, 48 hpi, vs mock treated
[8] = Toxicity of ligand alone (LDH release, CC50); settings: African green monkey
SARS-CoV-2 [9] = settings: Vero E6, MOI 0.2, 72 h
sigma-1 over sigma-2 = settings: cited from earlier work
Vero E6 cells = experiment: Toxicity of ligand alone (LDH release, CC50); settings: drug alone, Vero E6, 72 h, LDH release
SARS-CoV-2 [10] = experiment: Plaque reduction assay in Vero E6 monolayers; format: cell-based; settings: Vero E6, plaques counted at 72 h; for EC50: Severe acute respiratory syndrome coronavirus 2, Vero C1008, 72 h
H23 cells = experiment: Phospholipidosis assay; settings: 48 h treatment, 100 μg/ml
SARS-CoV-2 [11] = settings: previously published study; cited from earlier work
[12] = read-out: Cytotoxicity EC50 (inhibition of SARS-CoV-2-induced cytotoxicity)
[13] = read-out: EC50 for inhibition of SARS-CoV-2 induced cytotoxicity
[14] = 45 mg/kg daily intraperitoneal from 24 hours after infection

SMILES: COc1cccc2c1CCCC2CCCN1CCN(C2CCCCC2)CC1 (centres unmarked) [PB28]
- in vitro SARS-CoV-2 inhibitory effects (SARS-CoV-2 [1]): sub-nanomolar
- in vivo efficacy (SARS-CoV-2 [2]): ineffective
- in vivo toxicity (SARS-CoV-2 [2]): toxic

SMILES: COc1cc2c(cc1OC)CN(CCCCn1c(=O)n(C)c3ccccc31)CC2 [CM398, 1-(4-(6,7-Dimethoxy-3,4-dihydroisoquinolin-2(1H)-yl)butyl)-3-methyl-1H-benzo[d]imidazol-2(3H)-one]
- viral replication reduced by (qPCR) (SARS-CoV-2 [3]): 97.5%
- reduction of cytopathic effects (CPE) by microscopy (SARS-CoV-2 [4]): greatly reduce cytopathic effects
- EC50 (SARS-CoV-2 [5]; [12]): 51.3 mg/L
- EC50 (SARS-CoV-2 [5]; [13]): 130 µM
- weight loss associated with COVID-19 (SARS-CoV-2 [6]; [14]): delayed weight loss
- median survival (SARS-CoV-2 [6]; 45 mg/kg daily intraperitoneal from 24 hours after infection, saline 5.5 days, not statistically significant): 6.5 days
- survival and recovery (SARS-CoV-2 [6]; 45 mg/kg daily intraperitoneal, group of 5 mice): One mouse in the CM398 group survived and regained all weight lost
- decrease of SARS-CoV-2 concentration (TCID50) (SARS-CoV-2 [7]; 100 μg/ml): ~1 log
- CC50 at 72 h [8]: 111 mg/L (≈ 280 µM)

SMILES: COc1ccc(CCN2CCN(CCCc3ccccc3)CC2)cc1OC [SA4503, cutamesine, reference compound]
- Cytotoxicity EC50 (inhibition of SARS-CoV-2-induced cytotoxicity) (SARS-CoV-2 [9]; LDH release): 110.5 mg/L
- EC50 (SARS-CoV-2 [9]; read-out: EC50 for inhibition of SARS-CoV-2 induced cytotoxicity, LDH release): 300 µM
- viral replication reduced by (qPCR) (SARS-CoV-2 [3]): 56.2%
- preference for sigma-1 over sigma-2 (sigma-1 over sigma-2): > 15 fold
- reduction of cytopathic effects (CPE) by microscopy (SARS-CoV-2 [4]): unable to visibly reduce CPE
- Cytotoxicity CC50 (Vero E6 cells): 198.7 mg/L

SMILES: CC(CCCn1c(=O)sc2cc(F)ccc21)N1CCN(C2CCCCC2)CC1 (centres unmarked) [AZ66]
- viral replication reduced by (qPCR) (SARS-CoV-2 [3]): 99.9%
- viral replication reduction (qPCR) (SARS-CoV-2 [3]): 3 log
- reduction of cytopathic effects (CPE) by microscopy (SARS-CoV-2 [4]): greatly reduce cytopathic effects
- EC50 (SARS-CoV-2 [5]; [12]): 45.1 mg/L
- EC50 (SARS-CoV-2 [5]; [13]): 86.4 µM
- weight loss associated with COVID-19 (SARS-CoV-2 [6]; [14]): delayed weight loss
- EC50 (SARS-CoV-2 [10]; read-out: EC50 by plaque reduction assay): 15.9 µM
- EC50 (SARS-CoV-2 [10]; read-out: Plaque reduction EC50): 6.46 mg/L
- Plaque reduction EC50 (SARS-CoV-2 [10]): 6.47 mg/L
- decrease of SARS-CoV-2 concentration (TCID50) (SARS-CoV-2 [7]; 50 μg/ml): ~3 log
- CC50 at 72 h [8]: 128 mg/L (≈ 315 µM)

SMILES: O=c1sc2cc(CCCF)ccc2n1CCN1CCCCCC1 [CM304]
- inhibition of SARS-CoV-2-induced cytotoxicity (SARS-CoV-2 [9]): insignificant viral inhibition
- more virus detected (RNA levels) compared to the 48 hours DMSO control (SARS-CoV-2 [3]): 61.2%
- phospholipidosis level (H23 cells): highest mean levels of phospholipidosis
- reduction of cytopathic effects (CPE) by microscopy (SARS-CoV-2 [4]): unable to visibly reduce CPE

SMILES: CN(C)CCOC(c1ccccc1)c1ccccc1 [diphenhydramine, reference compound]
- reduction of N-protein RNA copies (qPCR) (SARS-CoV-2 [3]): 32.2%
- EC50 (SARS-CoV-2 [5]; [12]): 122 mg/L
- EC50 (SARS-CoV-2 [5]; [13]): 418 µM
- decrease of SARS-CoV-2 concentration (TCID50) (SARS-CoV-2 [7]; 40 μg/ml): ~2 log

SMILES: CCC(CC)COC(=O)[C@H](C)N[P@](=O)(OC[C@H]1O[C@@](C#N)(c2ccc3c(N)ncnn23)[C@H](O)[C@@H]1O)Oc1ccccc1 [remdesivir]
- reported SI (CC50/EC50) (SARS-CoV-2 [11]): > 4.96
